# According to article PMC11133627, “CATH-2-derived antimicrobial peptide inhibits multidrug-resistant Escherichia coli infection in chickens” (Frontiers in Cellular and Infection Microbiology, 2024):
# Ends that are not written are not given here.
# What was measured:
# [1] = test system: E. coli clinical isolate E16; assay: Drug-sensitivity test (paper disc, inhibition zone); assay type: cell-based, Escherichia coli; set-up: key to Drug sensitivity of E. coli E16: R: resistant strains; I: intermediate strains; S: sensitive strains; details: for Drug sensitivity of E. coli E16: 6 mm antibiotic paper on LB agar, 1×10^6 CFU/mL, 24h 37°C, inhibition zone diameter
# Description: (§1) E. coli (ATCC 8739) and clinical isolates of E. coli (E1, E9, E12, E14, E16, and E18) were stored at the Animal Biochemical Laboratory of Shanxi Agricultural University and grown in Luria-Bertani (LB) broth as previously reported ([Zhao et al., 2021]). Circular 6 mm paper pieces were prepared with filter paper and autoclaved for sterilization. […] Then, 0.5 mL of antibiotic solution was added to 100 sterilized papers. Subsequently, the paper pieces were fully infiltrated and dried in a vacuum drying oven to produce antibiotic susceptibility papers. The E. coli strain was retrieved from the -20°C freezer and activated by incubating it on LB agar media at 37°C for 24h. Individual colonies were selected and transferred to LB liquid media. Thereafter, the E. coli suspension was obtained by shaking at 37°C and 160 r/min for 18h. The obtained suspension was centrifuged at 5000 r/min for 5min, after which the supernatant was discarded, and the bacteria were resuspended in fresh medium to a concentration of 1×10^6 CFU/mL. Two hundred microliters of the bacterial suspension mentioned above was spread evenly onto LB agar medium. Then, the antibiotic susceptibility papers were placed on the medium surface using sterile tweezers. After 24h of incubation at 37°C, the diameter of the inhibition zone was measured to determine the susceptibility of E. coli to antibiotics.
# [2] = test system: E. coli clinical isolate E18; assay: as above; assay type: cell-based, Escherichia coli; set-up: key: R: resistant strains; I: intermediate strains; S: sensitive strains; details: 6 mm antibiotic paper on LB agar, 1×10^6 CFU/mL, 24h 37°C, inhibition zone diameter
# Description: as §1
# [3] = test system: E. coli clinical isolate E9; assay: as above; assay type: cell-based, Escherichia coli; set-up: key: R: resistant strains; I: intermediate strains; S: sensitive strains; details: 6 mm antibiotic paper on LB agar, 1×10^6 CFU/mL, 24h 37°C, inhibition zone diameter
# Description: as §1
# [4] = test system: E. coli (ATCC 8739); assay: as above; assay type: cell-based, Escherichia coli; set-up: key: R: resistant strains; I: intermediate strains; S: sensitive strains; details: 6 mm antibiotic paper on LB agar, 1×10^6 CFU/mL, 24h 37°C, inhibition zone diameter
# Description: as §1
# [5] = test system: E. coli clinical isolate E14; assay: as above; assay type: cell-based, Escherichia coli; set-up: key to Drug sensitivity of E. coli E14: R: resistant strains; I: intermediate strains; S: sensitive strains; details: for Drug sensitivity of E. coli E14: 6 mm antibiotic paper on LB agar, 1×10^6 CFU/mL, 24h 37°C, inhibition zone diameter
# Description: as §1
# [6] = test system: 6 E. coli strains (E1, E9, E12, E14, E16, E18); assay type: cell-based, Escherichia coli; details: paper disc test
# Description: as §1
# [7] = test system: E. coli clinical isolate E12; assay: Drug-sensitivity test (paper disc, inhibition zone); assay type: cell-based, Escherichia coli; set-up: key to Drug sensitivity of E. coli E12: R: resistant strains; I: intermediate strains; S: sensitive strains; details: for Drug sensitivity of E. coli E12: 6 mm antibiotic paper on LB agar, 1×10^6 CFU/mL, 24h 37°C, inhibition zone diameter
# Description: as §1
# [8] = test system: E. coli clinical isolate E1; assay type: cell-based; set-up: key: R: resistant strains; I: intermediate strains; S: sensitive strains; details: 6 mm antibiotic paper on LB agar, 1×10^6 CFU/mL, 24h 37°C, inhibition zone diameter
# Description: as §1
# [9] = test system: E. coli clinical isolate E1; assay: microbe, parasite or virus in culture
# Description: (§2) The minimum inhibitory concentrations (MICs) of the AMPs were determined using the microbroth dilution technique ([van Harten et al., 2021]). One hundred microliters of bacterial suspension at a concentration of 1×10^6 CFU/mL was pipetted into a 96-well plate. Then, 100 μL of AMP or gentamicin at various concentrations was added, while the bacterial suspension without AMPs and blank medium were used as controls.
# [10] = test system: E. coli (E16); assay: Chicken infection with MDR E. coli; assay type: in vivo
# Description: Except for the blank control group injected with 500 μL of normal saline, the other four groups were injected with 500 μL of 3×10^9 CFU/mL E. coli (E16) into the pectoral muscles. […] Clinical symptoms and were observed and documented for the chickens in each group after infection. After 72h, the chickens in each group were euthanized and examined for internal organ damage. Paraffin sections were prepared for microscopic examination of pathological changes. Under sterile conditions, 1 g samples of heart, liver, and spleen were collected, and each sample was supplemented with 20 mL of sterile PBS. After thorough grinding, the sample was diluted to the appropriate multiple, and 100 μL of the diluent was spread onto LB agar medium. The plates were incubated for 24h, after which the colonies were counted.
# [11] = test system: E. coli (ATCC 8739); assay: Sterilization kinetics assay; assay type: cell-based, Escherichia coli; details: 8 μg/mL, 1×10^5 CFU/mL, 37°C, colony count
# Description: The sterilization kinetics assay was performed following previous methods ([Peng et al., 2022]; [Yong Fang et al., 2023]). […] At each time point, 10 μL of sample was diluted in 1 mL of PBS, and 100 μL of the dilution was plated on LB agar plates. After incubating at 37°C for 24h, the number of colonies was counted.
# [12] = test system: E. coli clinical isolate E14; assay: microbe, parasite or virus in culture; assay type: cell-based, Escherichia coli
# Description: as §2
# [13] = test system: E. coli clinical isolate E18; assay: microbe, parasite or virus in culture; assay type: cell-based, Escherichia coli
# Description: as §2
# [14] = test system: E. coli clinical isolate E16; assay: microbe, parasite or virus in culture; assay type: cell-based, Escherichia coli
# Description: as §2
# [15] = test system: E. coli clinical isolate E9; assay: microbe, parasite or virus in culture; assay type: cell-based, Escherichia coli
# Description: as §2
# [16] = test system: E. coli (ATCC 8739); assay: microbe, parasite or virus in culture; assay type: cell-based, Escherichia coli
# Description: as §2
# [17] = test system: E. coli clinical isolate E12; assay: microbe, parasite or virus in culture; assay type: cell-based, Escherichia coli
# Description: as §2
# [18] = test system: E. coli (ATCC 8739); assay type: cell-based, Escherichia coli; details: ATCC 8739, 1 h
# Description: The MICs of the AMPs against E. coli (ATCC 8739) at different temperatures and physiological salt concentrations were evaluated. The thermal stability of the AMPs was assessed by incubating them at a concentration of 500 μg/mL for 1h at 0, 37, and 100°C, using untreated AMPs as a control. The salt ion stability of the AMPs was determined by incubating them at a concentration of 500 μg/mL in solutions of NaCl (150 mM), KCl (4.5 mM), MgCl2 (1 mM), and CaCl2 (2.5 mM) for 1h, using untreated samples as controls. The changes in the MICs of the AMPs were assessed following these experimental procedures.
# [19] = test system: E. coli strains (ATCC 8739 and MDR clinical isolates); assay type: cell-based, Escherichia coli; details: ATCC 8739, 18 h
# Description: as §2
molecule,measurement,setting,value
CS(=O)(=O)c1ccc([C@@H](O)[C@@H](CF)NC(=O)C(Cl)Cl)cc1 [florfenicol],Drug sensitivity of E. coli E16,[1],R
same,Drug sensitivity of E. coli E18,[2],R
same,Drug sensitivity of E. coli E9,[3],R
same,Drug sensitivity of E. coli ATCC 8739,[4],S
same,Drug sensitivity of E. coli E14,[5],R
same,Resistance of the 6 clinical E. coli strains (in words),[6],resistant
same,Drug sensitivity of E. coli E12,[7],R
same,Drug sensitivity of E. coli E1,[8],R
"CNC(C)C1CCC(N)C(OC2C(N)CC(N)C(OC3OCC(C)(O)C(NC)C3O)C2O)O1 (stereo not shown) [gentamicin, reference compound]",MIC,"[9]; Escherichia coli, 18 h, read-out: MIC against E. coli E1",64 µg/mL
same,MBC,"[9]; Escherichia coli, 24 h, read-out: MBC against E. coli E1",64 µg/mL
same,Drug sensitivity of E. coli E16,[1],S
same,Drug sensitivity of E. coli E16 (in words),[1]; paper disc test,susceptible
same,3-day mortality rate,"[10]; 200 μg/mL, 500 μL into pectoral muscle 4h after 1.5×10^9 CFU E16",10%
same,"Bacterial loads in the heart, liver and spleen (in words)","[10]; after 3 days of infection, vs infected untreated",significantly reduced
same,"Organ lesions of heart, liver, intestine (in words)","[10]; autopsy, vs E. coli infection group",significant reduction in organ lesions
same,Drug sensitivity of E. coli E18,[2],R
same,Drug sensitivity of E. coli E9,[3],I
same,Drug sensitivity of E. coli ATCC 8739,[4],I
same,Drug sensitivity of E. coli E14,[5],S
same,Drug sensitivity of E. coli E14 (in words),[5]; paper disc test,susceptible
same,Drug sensitivity of E. coli E12,[7],S
same,Drug sensitivity of E. coli E12 (in words),[7]; paper disc test,susceptible
same,Time for complete bacterial eradication,[11],≤ 60 min
same,Drug sensitivity of E. coli E1,[8],R
same,MBC,"[12]; Escherichia coli, 50 μL from fully inhibited wells plated on LB agar, colonies counted after 24h 37°C, read-out: MBC against E. coli E14",4 µg/mL
same,MIC,"[12]; Escherichia coli, microbroth dilution, 1×10^6 CFU/mL, 37°C 18h, turbidity, read-out: MIC against E. coli E14",4 µg/mL
same,MBC,"[13]; Escherichia coli, 50 μL from fully inhibited wells plated on LB agar, colonies counted after 24h 37°C, read-out: MBC against E. coli E18",128 µg/mL
same,MIC,"[13]; Escherichia coli, microbroth dilution, 1×10^6 CFU/mL, 37°C 18h, turbidity, read-out: MIC against E. coli E18",64 µg/mL
same,MBC,"[14]; Escherichia coli, 50 μL from fully inhibited wells plated on LB agar, colonies counted after 24h 37°C, read-out: MBC against E. coli E16",4 µg/mL
same,MIC,"[14]; Escherichia coli, microbroth dilution, 1×10^6 CFU/mL, 37°C 18h, turbidity, read-out: MIC against E. coli E16",4 µg/mL
same,MBC,"[15]; Escherichia coli, 50 μL from fully inhibited wells plated on LB agar, colonies counted after 24h 37°C, read-out: MBC against E. coli E9",8 µg/mL
same,MIC,"[15]; Escherichia coli, microbroth dilution, 1×10^6 CFU/mL, 37°C 18h, turbidity, read-out: MIC against E. coli E9",8 µg/mL
same,MBC,"[16]; Escherichia coli, ATCC8739, 50 μL from fully inhibited wells plated on LB agar, colonies counted after 24h 37°C, read-out: MBC against E. coli ATCC 8739",8 µg/mL
same,MIC,"[16]; Escherichia coli, ATCC8739, microbroth dilution, 1×10^6 CFU/mL, 37°C 18h, turbidity, read-out: MIC against E. coli ATCC 8739",8 µg/mL
same,MBC,"[17]; Escherichia coli, 50 μL from fully inhibited wells plated on LB agar, colonies counted after 24h 37°C, read-out: MBC against E. coli E12",4 µg/mL
same,MIC,"[17]; Escherichia coli, microbroth dilution, 1×10^6 CFU/mL, 37°C 18h, turbidity, read-out: MIC against E. coli E12",4 µg/mL
RFGRFLRKIRRMRLK [C2-2],MBC against E. coli E1,"[9]; 50 μL from fully inhibited wells plated on LB agar, colonies counted after 24h 37°C",8 µg/mL
same,MIC against E. coli E1,"[9]; microbroth dilution, 1×10^6 CFU/mL, 37°C 18h, turbidity",4 µg/mL
same,"MIC against E. coli (ATCC 8739), Salt Stability CaCl2 (2.5 mM)",[18],4 µg/mL
same,"MIC against E. coli (ATCC 8739), Salt Stability KCl (4.5 mM)",[18],0.5 µg/mL
same,"MIC against E. coli (ATCC 8739), Salt Stability MgCl2 (1 mM)",[18],0.5 µg/mL
same,"MIC against E. coli (ATCC 8739), Salt Stability NaCl (150 mM)",[18],0.5 µg/mL
same,"MIC against E. coli (ATCC 8739), Thermal Stability 0°C",[18],8 µg/mL
same,"MIC against E. coli (ATCC 8739), Thermal Stability 37°C",[18],8 µg/mL
same,"MIC against E. coli (ATCC 8739), Thermal Stability 100°C",[18],8 µg/mL
same,MBC range over E. coli strains,[19],2 to 8 µg/mL
same,MIC range over E. coli strains,[19],2 to 8 µg/mL
same,MIC against E. coli E14,"[12]; clinical isolate E14, 18 h",8 µg/mL
same,MBC against E. coli E14,"[12]; clinical isolate E14, 24 h",8 µg/mL
same,MIC against E. coli E18,"[13]; clinical isolate E18, 18 h",4 µg/mL
same,MBC against E. coli E18,"[13]; clinical isolate E18, 24 h",4 µg/mL
same,MIC against E. coli E16,"[14]; clinical isolate E16, 18 h",8 µg/mL
same,MBC against E. coli E16,"[14]; clinical isolate E16, 24 h",8 µg/mL
same,MIC against E. coli E9,"[15]; clinical isolate E9, 18 h",2 µg/mL
same,MBC against E. coli E9,"[15]; clinical isolate E9, 24 h",2 µg/mL
same,MIC against E. coli ATCC 8739,"[16]; ATCC 8739, 18 h",8 µg/mL
same,MBC against E. coli ATCC 8739,"[16]; ATCC 8739, 24 h",8 µg/mL
same,MIC against E. coli E12,"[17]; clinical isolate E12, 18 h",2 µg/mL
same,MBC against E. coli E12,"[17]; clinical isolate E12, 24 h",2 µg/mL
penicillin,Drug sensitivity of E. coli E16,[1],R
same,Drug sensitivity of E. coli E18,[2],R
same,Drug sensitivity of E. coli E9,[3],R
same,Drug sensitivity of E. coli ATCC 8739,[4],S
same,Drug sensitivity of E. coli E14,[5],R
same,Resistance of the 6 clinical E. coli strains (in words),[6],resistant
same,Drug sensitivity of E. coli E12,[7],R
same,Drug sensitivity of E. coli E1,[8],R
